We go through four compounds from patent US11034650B2, “Compounds useful for treating a Mannheimia haemolytica or Histophilus somni infection” (Intervet Inc., priority 2016, dated 2021).

≈ marks a conversion by molar mass, not a printed value.

One experiment concerns Mannheimia haemolytica MH 10720 (154, BRD field isolate). Briefly: MIC, broth-microdilution (CLSI VET01-A4), strain MH 10720. The format is cell-based. To be noted: Mannheimia haemolytica strain MH 10720, broth-microdilution; unit assumed. In a few lines: (§1)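 The compound was titrated in twofold steps in microdilution trays. Absence of turbidity, checked without instruments, marked the MIC at the lowest such concentration.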
Turning to `CC(C)(O)[C@H](NC(=O)c1ccc(C#Cc2ccc(CNCc3nccs3)nc2)cc1)C(=O)NO` [Compound 362], the MIC MH 10720 amounted to 0.4 µg/mL (≈ 0.834 µM).

The compound `CC(C)[C@H](NC(=O)c1ccc(C#Cc2ccc(CNC3CCCC3)cc2)cc1)C(=O)NO` [Compound 209] yielded an MIC MH 10720 of 1.6 µg/mL (≈ 3.69 µM).

Compound `CC(C)(C(NC(=O)c1ccc(C#Cc2ccc(CN3CCOCC3)nc2)cc1)C(=O)NO)S(C)(=O)=O` (stereo not shown) [Compound 350] registered an MIC MH 10720 of 1.6 µg/mL (≈ 3.11 µM).

Consider `CON=C(C)[C@H](NC(=O)c1ccc(C#Cc2ccc(CNCc3ccnc(Cl)c3)cc2)cc1)C(=O)NO` [Compound 389], for which the MIC MH 10720 turned out to be 0.8 µg/mL (≈ 1.54 µM).

For another experiment, the system named is Mannheimia haemolytica MH 13093 (XB0472-6014.1, BRD field isolate). In words: MIC, broth-microdilution (CLSI VET01-A4), strain MH 13093. Conditions: Mannheimia haemolytica strain MH 13093, broth-microdilution; unit assumed. It is filed as cell-based. In a few lines: as §1
`CC(C)(O)[C@H](NC(=O)c1ccc(C#Cc2ccc(CNCc3nccs3)nc2)cc1)C(=O)NO` [Compound 362]: the MIC MH 13093 is 3.1 µg/mL (≈ 6.46 µM).

Regarding `CC(C)[C@H](NC(=O)c1ccc(C#Cc2ccc(CNC3CCCC3)cc2)cc1)C(=O)NO` [Compound 209], the MIC MH 13093 was 12.5 µg/mL (≈ 28.8 µM).

On to `CC(C)(C(NC(=O)c1ccc(C#Cc2ccc(CN3CCOCC3)nc2)cc1)C(=O)NO)S(C)(=O)=O` (stereo not shown) [Compound 350], for which the MIC MH 13093 came to 6.3 µg/mL (≈ 12.2 µM).

Consider `CON=C(C)[C@H](NC(=O)c1ccc(C#Cc2ccc(CNCc3ccnc(Cl)c3)cc2)cc1)C(=O)NO` [Compound 389], for which the MIC MH 13093 was determined as 1.6 µg/mL (≈ 3.08 µM).

The subject of the next experiment is Pasteurella multocida PM 10775 (080130003051, BRD field isolate). In words: MIC, broth-microdilution (CLSI VET01-A4), strain PM 10775. The format is cell-based. Conditions: Pasteurella multocida strain PM 10775, broth-microdilution; unit assumed. The procedure, abridged:
as §1
The compound `CC(C)(O)[C@H](NC(=O)c1ccc(C#Cc2ccc(CNCc3nccs3)nc2)cc1)C(=O)NO` [Compound 362] showed an MIC PM 10775 not above 0.1 µg/mL.

Regarding `CC(C)[C@H](NC(=O)c1ccc(C#Cc2ccc(CNC3CCCC3)cc2)cc1)C(=O)NO` [Compound 209], the MIC PM 10775 was not above 0.1 µg/mL.

Turning to `CC(C)(C(NC(=O)c1ccc(C#Cc2ccc(CN3CCOCC3)nc2)cc1)C(=O)NO)S(C)(=O)=O` (stereo not shown) [Compound 350], the MIC PM 10775 was not above 0.1 µg/mL.

Turning to `CON=C(C)[C@H](NC(=O)c1ccc(C#Cc2ccc(CNCc3ccnc(Cl)c3)cc2)cc1)C(=O)NO` [Compound 389], the MIC PM 10775 stood at 0.4 µg/mL (≈ 0.769 µM).

A further experiment concerns Mannheimia haemolytica MH 6374 (ATCC 33396, reference strain). Briefly: MIC, broth-microdilution (CLSI VET01-A4), strain MH 6374. It is filed as cell-based. To be noted: Mannheimia haemolytica strain MH 6374, broth-microdilution; unit assumed. The procedure, abridged: as §1
The compound `CC(C)(O)[C@H](NC(=O)c1ccc(C#Cc2ccc(CNCc3nccs3)nc2)cc1)C(=O)NO` [Compound 362] displayed an MIC MH 6374 of 0.8 µg/mL (≈ 1.67 µM).

In the case of `CC(C)[C@H](NC(=O)c1ccc(C#Cc2ccc(CNC3CCCC3)cc2)cc1)C(=O)NO` [Compound 209], the MIC MH 6374 turned out to be 6.3 µg/mL (≈ 14.5 µM).

Compound `CC(C)(C(NC(=O)c1ccc(C#Cc2ccc(CN3CCOCC3)nc2)cc1)C(=O)NO)S(C)(=O)=O` (stereo not shown) [Compound 350] showed an MIC MH 6374 of 6.3 µg/mL (≈ 12.2 µM).

In the case of `CON=C(C)[C@H](NC(=O)c1ccc(C#Cc2ccc(CNCc3ccnc(Cl)c3)cc2)cc1)C(=O)NO` [Compound 389], the MIC MH 6374 was found to be 1.6 µg/mL (≈ 3.08 µM).

For another experiment, the system named is Mannheimia haemolytica MH 6357 (M7/2, reference strain, cattle infection strain). Briefly: MIC, broth-microdilution (CLSI VET01-A4), strain MH 6357. It is filed as cell-based. Conditions: Mannheimia haemolytica strain MH 6357, broth-microdilution; unit assumed. The procedure, abridged: as §1
The compound `CC(C)(O)[C@H](NC(=O)c1ccc(C#Cc2ccc(CNCc3nccs3)nc2)cc1)C(=O)NO` [Compound 362] showed an MIC MH 6357 of 3.1 µg/mL (≈ 6.46 µM).

The compound `CC(C)[C@H](NC(=O)c1ccc(C#Cc2ccc(CNC3CCCC3)cc2)cc1)C(=O)NO` [Compound 209] returned an MIC MH 6357 of 3.1 µg/mL (≈ 7.15 µM).

On to `CC(C)(C(NC(=O)c1ccc(C#Cc2ccc(CN3CCOCC3)nc2)cc1)C(=O)NO)S(C)(=O)=O` (stereo not shown) [Compound 350], for which the MIC MH 6357 is 6.3 µg/mL (≈ 12.2 µM).

In turn, `CON=C(C)[C@H](NC(=O)c1ccc(C#Cc2ccc(CNCc3ccnc(Cl)c3)cc2)cc1)C(=O)NO` [Compound 389] displayed an MIC MH 6357 of 0.8 µg/mL (≈ 1.54 µM).

The test system of a further experiment is Pasteurella multocida PM 6267 (P 2225 (L386), reference strain, mouse infection strain). Briefly: MIC, broth-microdilution (CLSI VET01-A4), strain PM 6267. The format is cell-based. To be noted: Pasteurella multocida strain PM 6267, broth-microdilution; unit assumed. In a few lines: as §1
As to `CC(C)(O)[C@H](NC(=O)c1ccc(C#Cc2ccc(CNCc3nccs3)nc2)cc1)C(=O)NO` [Compound 362], the MIC PM 6267 was 0.2 µg/mL (≈ 0.417 µM).

Compound `CC(C)[C@H](NC(=O)c1ccc(C#Cc2ccc(CNC3CCCC3)cc2)cc1)C(=O)NO` [Compound 209] had an MIC PM 6267 not above 0.1 µg/mL.

For `CC(C)(C(NC(=O)c1ccc(C#Cc2ccc(CN3CCOCC3)nc2)cc1)C(=O)NO)S(C)(=O)=O` (stereo not shown) [Compound 350], the MIC PM 6267 was 6.3 µg/mL (≈ 12.2 µM).

`CON=C(C)[C@H](NC(=O)c1ccc(C#Cc2ccc(CNCc3ccnc(Cl)c3)cc2)cc1)C(=O)NO` [Compound 389] displayed an MIC PM 6267 of 3.1 µg/mL (≈ 5.96 µM).

Another experiment relates to Mannheimia haemolytica MH 13065 (XB0446-6003.9, BRD field isolate). In words: MIC, broth-microdilution (CLSI VET01-A4), strain MH 13065. It is filed as cell-based. To be noted: Mannheimia haemolytica strain MH 13065, broth-microdilution; unit assumed. In a few lines:
as §1
Regarding `CC(C)(O)[C@H](NC(=O)c1ccc(C#Cc2ccc(CNCc3nccs3)nc2)cc1)C(=O)NO` [Compound 362], the MIC MH 13065 amounted to 1.6 µg/mL (≈ 3.34 µM).

Take `CC(C)[C@H](NC(=O)c1ccc(C#Cc2ccc(CNC3CCCC3)cc2)cc1)C(=O)NO` [Compound 209]: the MIC MH 13065 was determined as 6.3 µg/mL (≈ 14.5 µM).

For the compound `CC(C)(C(NC(=O)c1ccc(C#Cc2ccc(CN3CCOCC3)nc2)cc1)C(=O)NO)S(C)(=O)=O` (stereo not shown) [Compound 350], the MIC MH 13065 was 6.3 µg/mL (≈ 12.2 µM).

With `CON=C(C)[C@H](NC(=O)c1ccc(C#Cc2ccc(CNCc3ccnc(Cl)c3)cc2)cc1)C(=O)NO` [Compound 389], the MIC MH 13065 amounted to 1.6 µg/mL (≈ 3.08 µM).

A further experiment deals with Pasteurella multocida PM 6391 (ATCC 43137, reference strain). Briefly: MIC, broth-microdilution (CLSI VET01-A4), strain PM 6391. It is filed as cell-based. Conditions: Pasteurella multocida strain PM 6391, broth-microdilution; unit assumed. The procedure, abridged:
as §1
For `CC(C)(O)[C@H](NC(=O)c1ccc(C#Cc2ccc(CNCc3nccs3)nc2)cc1)C(=O)NO` [Compound 362], the MIC PM 6391 stood at 0.4 µg/mL (≈ 0.834 µM).

In the case of `CC(C)[C@H](NC(=O)c1ccc(C#Cc2ccc(CNC3CCCC3)cc2)cc1)C(=O)NO` [Compound 209], the MIC PM 6391 was 0.4 µg/mL (≈ 0.923 µM).

With `CC(C)(C(NC(=O)c1ccc(C#Cc2ccc(CN3CCOCC3)nc2)cc1)C(=O)NO)S(C)(=O)=O` (stereo not shown) [Compound 350], the MIC PM 6391 is 0.8 µg/mL (≈ 1.55 µM).

The compound `CON=C(C)[C@H](NC(=O)c1ccc(C#Cc2ccc(CNCc3ccnc(Cl)c3)cc2)cc1)C(=O)NO` [Compound 389] registered an MIC PM 6391 not above 0.1 µg/mL.

In another experiment the test system is Pasteurella multocida PM 12080 (IV102277-0093, BRD field isolate). In words: MIC, broth-microdilution (CLSI VET01-A4), strain PM 12080. The format is cell-based. To be noted: Pasteurella multocida strain PM 12080, broth-microdilution; unit assumed. The procedure, abridged: as §1
For the compound `CC(C)(O)[C@H](NC(=O)c1ccc(C#Cc2ccc(CNCc3nccs3)nc2)cc1)C(=O)NO` [Compound 362], the MIC PM 12080 is 0.2 µg/mL (≈ 0.417 µM).

Regarding `CC(C)[C@H](NC(=O)c1ccc(C#Cc2ccc(CNC3CCCC3)cc2)cc1)C(=O)NO` [Compound 209], the MIC PM 12080 amounted to 0.2 µg/mL (≈ 0.461 µM).

The compound `CC(C)(C(NC(=O)c1ccc(C#Cc2ccc(CN3CCOCC3)nc2)cc1)C(=O)NO)S(C)(=O)=O` (stereo not shown) [Compound 350] registered an MIC PM 12080 of 0.4 µg/mL (≈ 0.777 µM).

In turn, `CON=C(C)[C@H](NC(=O)c1ccc(C#Cc2ccc(CNCc3ccnc(Cl)c3)cc2)cc1)C(=O)NO` [Compound 389] gave an MIC PM 12080 of 0.4 µg/mL (≈ 0.769 µM).

The subject of the next experiment is Mannheimia haemolytica MH 12587 (1071, BRD field isolate, macrolide-resistance: erm+, E+). In words: MIC, broth-microdilution (CLSI VET01-A4), strain MH 12587. The format is cell-based. Conditions: Mannheimia haemolytica strain MH 12587, broth-microdilution; unit assumed. In a few lines: as §1
On to `CC(C)(O)[C@H](NC(=O)c1ccc(C#Cc2ccc(CNCc3nccs3)nc2)cc1)C(=O)NO` [Compound 362], for which the MIC MH 12587 is 3.1 µg/mL (≈ 6.46 µM).

Compound `CC(C)[C@H](NC(=O)c1ccc(C#Cc2ccc(CNC3CCCC3)cc2)cc1)C(=O)NO` [Compound 209] returned an MIC MH 12587 of 12.5 µg/mL (≈ 28.8 µM).

For `CC(C)(C(NC(=O)c1ccc(C#Cc2ccc(CN3CCOCC3)nc2)cc1)C(=O)NO)S(C)(=O)=O` (stereo not shown) [Compound 350], the MIC MH 12587 is 12.5 µg/mL (≈ 24.3 µM).

For `CON=C(C)[C@H](NC(=O)c1ccc(C#Cc2ccc(CNCc3ccnc(Cl)c3)cc2)cc1)C(=O)NO` [Compound 389], the MIC MH 12587 was determined as 0.4 µg/mL (≈ 0.769 µM).
